# Reference: US6268391A, “Benzylidene-1,3-dihydro-indol-2-one derivatives a receptor tyrosine kinase inhibitors, particularly of Raf kinases” (Glaxo Wellcome Inc., priority 1997, dated 2001)
# Where two headings read alike, the source gives them in different places.
# Tests used:
# PC-3 (prostate) = experiment: Cell Based Efficacy (MTT Assay), PC-3; settings: Homo sapiens; 72 hours with compound; 50% inhibitory concentration
# Description: (§1) The potency of compounds of the invention are tested for their ability to inhibit cell proliferation and cell viability. The metabolic conversion of 3-(4,5-dimethylthiazol-2-yl)-2,5-diphenyltetrazolium bromide (MTT, Sigma #M2128) to a reduced form is a commonly used measure of cellular viability. Following is the procedure:
# (§2) Cells are maintained in 75 cm^2 tissue culture flasks until ready for use. The cells are grown and plated for the assay in Dulbecco's modified Eagle's media containing 10% fetal bovine serum. For example, the following cell lines can be used: a) human foreskin fibroblasts (HFF), b) HT29 (human colon carcinoma cell line), c) MDA-MB-468 (human breast carcinoma cell line), d) RKO (human colon adenocarcinoma cell line), e) SW620 (human colon carcinoma cell line), f) A549 (human lung carcinoma cell line), and g) MIA PACA (human pancreatic carcinoma cell line). Cells are maintained at 37° C. in 10% CO2, 90% humidified air. Cells are plated in 96-well tissue culture plates at the densities listed below. 100 μL of cell suspension is added to each well of the 96-well plate except the top row of the plate which contains no cells and serves as a reference for the spectrophotometer.
# (§3) Cells are incubated overnight in Dulbecco's modified Eagle's media containing 10% fetal bovine serum at 37° C. in 10% CO2, 90% humidified air prior to dosing. Cells are dosed in 10 sequential 3-fold dilutions starting at 30 uM depending upon the solubility of the compound. Compounds with solubilities of less than 30 uM are dosed at the highest soluble concentration. Stock solutions of compounds are made in 100% dimethyl sulfoxide (DMSO). Stock solutions are diluted in Dulbecco's modified Eagle's media containing 100 ug/mL gentamicin and 0.3 to 0.6% DMSO at the twice the highest concentration to be placed on the cells. If compounds have been dissolved in DMSO the final concentration of DMSO on the cells is kept below 0.3%. 3-fold serial dilutions are performed on each compound to prepare 10 concentrations of the compound for dosing. 100 μL of diluted compound is added to the 100 μL of media currently on the dish. For each concentration of compound, 2-4 replicate wells are prepared.
# (§4) Cells are returned to incubator and allowed to proliferate in the presence of compound for 72 hours before addition of MTT. MTT is prepared in phosphate buffered saline (Irvine Scientific #9240) at a concentration of 2mg/mL. 50 μL per well of MTT solution is added to the 200 μL of media to yield a final concentration of 0.4 mg/mL and plates are returned to the incubator for 4 hours. After 4 hours incubation the media, compound and MTT mixture is aspirated from the plates and 100 μL of 100% DMSO is added to each well in addition to 25 μL of Sorenson's Buffer (0.1M glycine, 0.1M NaCl, pH 10.5). Quantitation of metabolic reduction of MTT in each plate is performed by reading optical density at 570 nm wavelength on a Molecular Devices UVmax microplate reader. Growth inhibition curves and 50% inhibitory concentrations are determined using Microsoft Excel.
# (§5) Table 4 illustrates the inhibitory activity of compounds of the present invention against a representative kinase (raf) and the cytotoxicity of compounds of the present invention against a broad range of human tumor cell lines.
# [1] = tested on: SW620 (human colon carcinoma cell line); experiment: Cell Based Efficacy (MTT Assay), SW620; settings: SW-620, 72 hours with compound, 50% inhibitory concentration
# Description: as §1
# as §2, with “spectrophotometer. […]” for “spectrophotometer.”
# as §3, §4, §5
# [2] = tested on: MIA PACA (human pancreatic carcinoma cell line); experiment: Cell Based Efficacy (MTT Assay), MIA PACA; settings: MIA PaCa-2, 72 hours with compound, 50% inhibitory concentration
# Description: as §1, §2
# MIA PACA 3000 cells/well
# as §3, §4, §5
# Human cRaf1 = target: T1, Human cRaf1 (Homo sapiens, UniProt P04049); experiment: Raf kinase assay (cRaf1 assay / Raf/MEK cascade assay); format: biochemical
# T1 construct: poly-histidine (C); made in house
# HT-29 xenograft = experiment: Anti-tumor study in mice, HT-29 xenograft; format: in vivo
# Description: (§6) Mice are acquired from Taconic Farms and are maintained in Microisolator cages at 72±2° F. with a 12 hour light/dark cycle. Animals are housed at 4 mice per cage (28×17×12 cm ) and are given food and water ad libitum. Animals are numbered through the use of an ear punch or tail tattoo. All animal handling is done in a laminar flow hood.
# (§7) Solid tumors are measured by caliper measurement through the skin. Caliper measurements are typically made twice weekly. Tumor weight is calculated using the equation (length×width^2 /2)=mg tumor weight.
# (§8) Compounds are prepared in a vehicle consisting of DMSO, Cremophore and PBS.
# Drug therapy begins when the average tumor size is approximately 40-50 mg, which usually is day 7 after implant. The dose schedule consists of one dose/day for 5 consecutive days. Drugs are administered at 3 or 4 dose-levels based upon the previously-determined maximally tolerated dose. A vehicle control group is also included. Drugs may be administered by either i.v., i.p., s.c., or oral (p.o.) transdermal routes or other alternative routes. Drugs may be administered via tail vein infusion. The injection volume administered for each mouse is usually 0.01-0.02 mL/g of body weight. In the case of i.v. injections and tail vein infusion animals are restrained in a Broome restrainer during handling. Animal are fasted overnight prior to p.o. dosing. […]
# [3] = tested on: HT29 (human colon carcinoma cell line); experiment: Cell Based Efficacy (MTT Assay), HT29; settings: HT-29, 72 hours with compound, 50% inhibitory concentration
# Description: as §1, §2, §3, §4, §5
# [4] = tested on: MDA-MB-468 (human breast carcinoma cell line); experiment: Cell Based Efficacy (MTT Assay), MDA-MB-468; settings: 72 hours with compound, 50% inhibitory concentration
# Description: as §1
# as §2, with “spectrophotometer. […]” for “spectrophotometer.”
# as §3, §4, §5
# SW620 xenograft = experiment: Anti-tumor study in mice, SW620 xenograft; format: in vivo; settings: 50 mg/kg
# Description: as §6
# SW620, available from the American Type Culture Collection, are grown in media consisting of RPMI 1640 with fetal bovine serum (10%), sodium pyruvate (1.0 mM) and glutamine (2.0 mM). Cells are incubated at 37° C. in 5% CO2. Cells are harvested with trypsin (0.05%), centrifuged, and resuspended in PBS:matrigel (1:1) at 1×10^7 cell/ml.
# One of the tumor cell lines used is the colon line SW620. Tumors are initiated by subcutaneous injection of a cell suspension into the right flank of each mouse. The inoculum consists of 2×10^6 cells/mouse/ 0.2 ml in PBS:matrigel (1:1).
# as §7, §8
# Drug therapy begins when the average tumor size is approximately 40-50 mg, which usually is day 7 after implant. […] Drugs are administered at 3 or 4 dose-levels based upon the previously-determined maximally tolerated dose. […]
# [5] = Table 3, read-out: Raf Kinase activity
# T1 sequence (P04049 whole entry): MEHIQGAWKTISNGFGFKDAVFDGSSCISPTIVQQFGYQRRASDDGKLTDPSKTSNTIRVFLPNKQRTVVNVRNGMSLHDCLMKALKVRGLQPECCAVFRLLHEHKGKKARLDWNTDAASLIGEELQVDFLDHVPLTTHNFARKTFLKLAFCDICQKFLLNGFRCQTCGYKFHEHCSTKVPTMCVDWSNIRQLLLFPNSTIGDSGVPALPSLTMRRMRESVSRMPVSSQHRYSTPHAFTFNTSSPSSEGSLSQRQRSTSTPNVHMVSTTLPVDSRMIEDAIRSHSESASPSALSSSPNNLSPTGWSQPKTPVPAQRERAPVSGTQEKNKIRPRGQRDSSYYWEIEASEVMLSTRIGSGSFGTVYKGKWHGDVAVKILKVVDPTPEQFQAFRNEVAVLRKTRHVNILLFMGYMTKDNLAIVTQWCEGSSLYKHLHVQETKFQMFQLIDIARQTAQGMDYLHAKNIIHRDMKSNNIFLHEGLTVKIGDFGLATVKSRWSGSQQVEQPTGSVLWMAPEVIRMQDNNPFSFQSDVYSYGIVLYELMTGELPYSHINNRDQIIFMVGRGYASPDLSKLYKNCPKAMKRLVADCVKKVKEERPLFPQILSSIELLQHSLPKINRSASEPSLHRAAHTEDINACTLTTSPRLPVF
SMILES,IC50 (PC-3 (prostate)) [µM],IC50 [1] [nM],IC50 [2] [nM],IC50 (Human cRaf1; [5]) [nM],"IC50 (Human cRaf1; Table 4, read-out: Raf) [nM]",Tumor Response % Inhibition @ mg/kg (HT-29 xenograft; 5 mg/kg) [%],IC50 [3] [nM],IC50 [4] [nM],Tumor Response % Inhibition @ mg/kg (HT-29 xenograft; 25 mg/kg) [%],Tumor Response % Inhibition @ mg/kg (SW620 xenograft) [%]
"Cc1nc(-c2ccc3c(c2)C(=Cc2cc(Br)c(O)c(Br)c2)C(=O)N3)cs1 [Example 2, 3-(3,5-Dibromo-4-hydroxy-benzylidene)-5-(2-methyl-thiazol-4-yl)-1,3-dihydro-indol-2-one]",5 to 50,500 to 5000,500 to 5000,< 1000,< 500,50,500 to 5000,500 to 5000,,
"O=C1Nc2ccc(C(=O)CCl)cc2C1=Cc1cc(Br)c(O)c(Br)c1 [Example 84, 5-(2-Chloro-acetyl)-3-(3,5-dibromo-4-hydroxy-benzylidene)-1,3-dihydro-indol-2-one]",,,,< 1000,,,,,50,
"CCN(CC)CC(=O)c1ccc2c(c1)C(=Cc1cc(Cl)c(O)c(Cl)c1)C(=O)N2 [Example 85, 3-(3,5-Dichloro-4-hydroxy-benzylidene)-5-(2-diethylamino-acetyl)-1,3-dihydro-indol-2-one]",,,,< 1000,,,,,,40
